Laboratory results reported in patent US10370336B2, “Phenyl-cyanoquinolinone PDE9 inhibitors” (Merck Sharp & Dohme Corp., priority 2015, dated 2019).

Target: human PDE9 enzyme (PDE9A2) (Homo sapiens (Human), UniProt O76083)
Details: read-out: PDE9 IMAP Ki; IMAP FP assay, FAM-cGMP substrate 50 nM, apparent inhibition constant
Excerpt: Dose-inhibition profiles for each compound were characterized by fitting the mP data to a four-parameter equation given below.

Sequence of human PDE9 enzyme (PDE9A2) (O76083 other isoform, or with tags, fused parts or gaps): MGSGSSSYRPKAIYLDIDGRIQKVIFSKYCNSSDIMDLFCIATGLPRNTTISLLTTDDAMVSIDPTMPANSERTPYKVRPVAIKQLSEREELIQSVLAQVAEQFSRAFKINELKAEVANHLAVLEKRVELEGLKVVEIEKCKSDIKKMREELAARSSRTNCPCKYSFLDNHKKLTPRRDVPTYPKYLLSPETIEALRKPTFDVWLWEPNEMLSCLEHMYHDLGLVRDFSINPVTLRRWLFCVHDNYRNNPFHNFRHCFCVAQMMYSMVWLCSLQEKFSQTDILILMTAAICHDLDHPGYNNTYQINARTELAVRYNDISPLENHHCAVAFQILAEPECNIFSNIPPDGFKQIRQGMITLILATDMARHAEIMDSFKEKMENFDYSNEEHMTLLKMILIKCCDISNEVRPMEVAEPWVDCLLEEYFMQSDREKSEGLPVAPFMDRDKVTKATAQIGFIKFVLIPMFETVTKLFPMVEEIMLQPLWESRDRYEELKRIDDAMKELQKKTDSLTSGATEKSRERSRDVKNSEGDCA

Structure (SMILES): Cc1ccc(-c2c(C#N)c(=O)[nH]c3ccccc23)cc1 [Example 1-9, 2-oxo-4-(p-tolyl)-1H-quinoline-3-carbonitrile]
- Ki: 8.9 nM
